Consider four compounds from paper PMC11314561, “Design and Synthesis of Novel Aminoindazole-pyrrolo[2,3-b]pyridine Inhibitors of IKKα That Selectively Perturb Cellular Non-Canonical NF-κB Signalling” (Molecules, 2024).

The nature of data set [1]: Turbidimetric solubility. The settings on record: pH 7.4, aqueous buffer, kinetic from dmso stock, 0.01 M phosphate-buffered saline pH7.4. The format is physicochemical. As for the experimental part: Pharmacokinetic studies were contracted to Sygnature Discovery Limited. Turbidimetric Solubility was determined by diluting compound solutions (1 μM, 3 μM, 10 μM, 30 μM, 100 μM) prepared in DMSO into 0.01 M phosphate-buffered saline pH7.4. Turbidimetry was used as the endpoint by measuring absorbance at 620 nm.

Data set [2] deals with T1, IKKα (Homo sapiens, UniProt O15111).
T1 sequence (O15111 1-745): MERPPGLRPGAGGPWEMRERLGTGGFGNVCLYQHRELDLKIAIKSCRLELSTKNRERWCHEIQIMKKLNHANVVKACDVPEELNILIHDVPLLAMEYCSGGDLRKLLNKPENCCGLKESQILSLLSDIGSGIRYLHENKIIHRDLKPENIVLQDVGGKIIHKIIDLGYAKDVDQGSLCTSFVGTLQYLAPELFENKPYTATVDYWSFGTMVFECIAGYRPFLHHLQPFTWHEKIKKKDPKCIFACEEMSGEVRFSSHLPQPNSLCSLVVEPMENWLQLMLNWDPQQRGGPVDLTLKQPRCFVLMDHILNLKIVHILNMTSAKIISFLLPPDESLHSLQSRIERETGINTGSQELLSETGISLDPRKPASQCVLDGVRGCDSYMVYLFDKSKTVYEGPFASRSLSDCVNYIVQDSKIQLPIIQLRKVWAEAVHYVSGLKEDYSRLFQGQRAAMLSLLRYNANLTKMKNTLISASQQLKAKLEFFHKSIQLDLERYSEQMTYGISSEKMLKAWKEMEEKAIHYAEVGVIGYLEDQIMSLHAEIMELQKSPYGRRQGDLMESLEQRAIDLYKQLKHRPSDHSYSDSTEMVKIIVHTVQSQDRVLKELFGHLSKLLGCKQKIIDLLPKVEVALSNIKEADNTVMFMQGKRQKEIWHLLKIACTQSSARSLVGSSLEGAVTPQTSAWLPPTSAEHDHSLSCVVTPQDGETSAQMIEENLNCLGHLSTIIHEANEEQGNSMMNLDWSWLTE
Kind of data set: DELFIA kinase assay, IKKα. It is filed as biochemical. The note with it: DELFIA kinase assay. The source says: To examine the pyrrolo[2,3-b]pyridines as an alternative scaffold, we adopted the AIPP core because it had similar dimensions to SU909 (1), with HBD/HBA motifs positioned at the scaffold extremities to interact with both the hinge region and the G-loop wall of IKKα, a rationale we had previously proposed as the basis for imparting selectivity. A preliminary set of AIPP derivatives was designed and synthesised to explore its utility as an IKK-targeting scaffold, whilst incorporating additional functionality through which to introduce selectivity for the IKKα isoform (2–4; Figure 3). This was achieved by initially adopting two different approaches: either appending a hydrophobic moiety to the pyrrolo[2,3-b]pyridine motif as a fused form to afford the tricyclic derivatives 2 and 3, or as a phenyl substituent to introduce flexibility with respect to the central pyrrolo[2,3-b]pyridine moiety in 4. When assessed against IKKα and IKKβ using our in-house DELFIA kinase assay […] The pyrrolo[2,3-b]pyridine was bound to the hinge region in the classical HBA/HBD motif with the GK+3 amide backbone, whilst the aminoindazole projected towards the top of the pocket to interact with the G-loop (Figure 4A). […] In both isoforms, the 2-phenyl moiety protruded away from the hinge towards the exposed solvent area.
(§1) IKKα and IKKβ inhibitory activity were determined using a dissociation-enhanced ligand fluorescent immunoassay (DELFIA) based on the protocol of HTScan™ IKKβ Kinase Assay (Cell Signaling Technology, Danvers, MA, USA) as described in [24].

Data set [3] addresses T2, IKKβ (Homo sapiens, UniProt O14920).
T2 sequence (O14920 1-756): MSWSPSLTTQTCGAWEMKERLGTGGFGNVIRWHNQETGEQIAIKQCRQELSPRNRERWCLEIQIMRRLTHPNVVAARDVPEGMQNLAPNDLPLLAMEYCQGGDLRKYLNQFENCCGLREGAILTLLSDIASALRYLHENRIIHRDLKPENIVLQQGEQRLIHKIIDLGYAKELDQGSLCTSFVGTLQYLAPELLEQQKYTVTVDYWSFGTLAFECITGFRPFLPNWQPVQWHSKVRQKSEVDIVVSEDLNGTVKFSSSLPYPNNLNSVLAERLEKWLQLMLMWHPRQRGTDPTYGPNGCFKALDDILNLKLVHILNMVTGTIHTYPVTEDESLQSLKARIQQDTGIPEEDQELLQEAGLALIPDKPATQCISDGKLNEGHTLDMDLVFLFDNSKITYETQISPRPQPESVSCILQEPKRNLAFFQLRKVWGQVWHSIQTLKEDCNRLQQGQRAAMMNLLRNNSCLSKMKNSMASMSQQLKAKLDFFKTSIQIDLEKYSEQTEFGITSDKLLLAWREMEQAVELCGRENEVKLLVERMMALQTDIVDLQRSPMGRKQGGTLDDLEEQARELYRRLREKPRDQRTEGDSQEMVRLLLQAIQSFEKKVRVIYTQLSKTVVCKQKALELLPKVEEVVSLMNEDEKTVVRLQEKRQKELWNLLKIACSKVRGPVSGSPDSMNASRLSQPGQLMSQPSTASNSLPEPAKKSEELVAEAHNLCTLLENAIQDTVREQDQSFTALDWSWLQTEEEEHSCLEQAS
The data set can be described thus: DELFIA kinase assay, IKKβ. It is filed as biochemical. The note with it: read-out: Ki Values IKKβ. As to the method:
as §1

A short description of data set [4]: Mouse hepatocyte intrinsic clearance and half-life. It is filed as in vitro ADME. The note with it: mouse CD1 hepatocytes. As for the experimental part:
Intrinsic clearance and half-life were determined using cryopreserved pooled mouse CD1 hepatocytes. Test compounds were analysed at 1 µM in Williams Media E buffer (0.01% DMSO) at a cell density of 0.5 × 10^6 cells mL^–1. Cells were incubated at 37 °C for one hour with shaking, and compound depletion was measured by LC-MS/MS at six time points (0.25, 5, 10, 20, 40, and 60 min).

Values after ≈ are worked out from the molar mass of the structure shown.

With `Nc1n[nH]c2ccc(-c3ccnc4[nH]c(-c5cc(F)nc(CNc6ccccc6)c5)cc34)cc12` [Compound 6f], in data set [1], the solubility (commonly how much of the substance goes into solution per volume) is 3.75 µM (≈ 1.69 µg/mL). The Ki (in general, a dissociation constant, usually derived from enzyme kinetics or from competition with a known ligand) stood at 33 nM in data set [2] and 503 nM in data set [3].
The compound `COCCOCc1cc(OCc2ccccc2)cc(-c2cc3c(-c4ccc5[nH]nc(N)c5c4)ccnc3[nH]2)c1` [Compound 6b] came in with a solubility in data set [1] of 3.75 µM (≈ 1.95 µg/mL). Moreover, the Ki came to 29 nM in data set [2] and 1210 nM in data set [3].
In turn, `Nc1n[nH]c2ccc(-c3ccnc4[nH]c(-c5ccnc(OCc6ccncc6)c5)cc34)cc12` [Compound 6k] displayed a solubility in data set [1] above 100 µM. In data set [4] (cryopreserved pooled hepatocytes), the half-life – broadly, the time needed for the level to fall by half in the phase considered – at 1 µM came out at 2.02 h. The “Mouse Hepatocyte Clearance” value in data set [4] (1 µM) stood at 11 μL/min/10^6 Cells. Further, the Ki was determined as 6 nM in data set [2] and 12 nM in data set [3].
For the compound `Nc1n[nH]c2ccc(-c3ccnc4[nH]c(-c5cncc(OCc6ccccc6)c5)cc34)cc12` [Compound 6e], in data set [1], the solubility was determined as 6.5 µM (≈ 2.81 µg/mL). Besides, the Ki in data set [2] was 21 nM; in data set [3], 1550 nM.
